According to patent US20260115298A1, “PTH Treatment Regimen Comprising Two PTH Compounds” (priority 2022, published 2026):
Like-named read-outs stand apart in the source and are kept apart here.

Tests used:
endogenous PTH 1-84 = conditions: healthy volunteers, no further suppression at higher doses, cited from earlier work
[1] = test system: individuals with hypoparathyroidism; type: in vivo, human; conditions: for Active Vitamin D dose / Calcium supplement dose / Serum Calcium: mean of Compound 1 group
Text: PaTHway is a phase 3, multicenter (North America and Europe), randomized, double-blind, placebo-controlled, parallel-group, 26-week trial with an open-label extension of 156 weeks that evaluated the efficacy, safety, and tolerability of once-daily Compound 1 as PTH replacement therapy in individuals with hypoparathyroidism. All participants who completed the 26- week blinded treatment period were allowed to enroll in the 156-week open-label extension period. (ClinicalTrials.gov identifier: NCT04701203; EudraCT No.: 2020-003380-26).
Once enrolled, participants were randomized 3:1 into 2 treatment groups: Compound 1 18 μg PTH(1-34)/day or placebo (excipient solution) mimicking 18 μg/day, both co-administered with conventional therapy (active vitamin D and elemental calcium).
Randomization was stratified by etiology of hypoparathyroidism (postsurgical vs. non-surgical). In addition to frequent laboratory visits to measure serum calcium levels, the blinded treatment period included 10 clinic visits over 26 weeks. Once-daily treatment with Compound 1 or placebo was delivered by a modified Ypsomed UnoPen Fix pen injector using 31-gauge, 5 mm pen needles to deliver doses of 6-30 μg/injection in a volume of ≤100 μL to either abdomen or anterior thigh, rotating injection sites.
All participants were initially prescribed Compound 1 18 μg PTH(1-34)/day or a corresponding volume of placebo and were individually and progressively titrated to an optimal dose (allowable range 6-60 μg/day) in increments of 3 μg/day. Titration of study drug and conventional therapy was performed according to a protocol-specified algorithm guided by serum calcium values (Example 2). The algorithm was intended to facilitate independence from conventional therapy by discontinuation of active vitamin D and calcium in response to reestablishment of physiological PTH signaling with Compound 1 treatment. In the setting of normocalcemia, the protocol directs incremental increases in study drug (Compound 1 or placebo) accompanied by stepwise reductions of active vitamin D by 33-50% of the starting dose, followed by reductions of calcium in at least 1500 mg/day increments once vitamin D has been discontinued.
Participants were permitted to take elemental calcium <600 mg/day as a nutritional supplement if required to meet the generally recommended dietary intakes of calcium.
Treatment with Compound 1 was carried out in accordance with Example 1.

Which “dose that fully suppresses endogenous PTH 1-84” value (endogenous PTH 1-84) does the source give for palopegteriparatide [Compound 1] here?
Its value is 16 µg/day.

And the “time to complete discontinuation of active vitamin D” value ([1]; Compound 1 group)?
Its value is at most 8 weeks.

And the “SAEs considered related to treatment” value ([1]; in vivo)?
Its value is “one”.

What about the “participants reporting SAEs” value ([1]; in vivo) of the same substance?
The value was 8.2%.

And the “Active Vitamin D dose” value ([1]; week 0)?
The value was 0.992 µg.

What about the Calcium supplement dose ([1]; week 0) of the same substance?
Its Calcium supplement dose is 1748.03 mg.

And the “Serum Calcium” value ([1]; week 0)?
The value was 8.8 mg/dL.

And the “Active Vitamin D dose” value ([1]; week 2)?
Its value is 0.098 µg.

And the Calcium supplement dose ([1]; week 2)?
Its Calcium supplement dose is 1524.1 mg.

And the “Serum Calcium” value ([1]; week 2)?
Its value is 9.8 mg/dL.

What about the “Active Vitamin D dose” value ([1]; week 4) of the same substance?
Its value is 0.008 µg.

What about the Calcium supplement dose ([1]; week 4) of the same substance?
Its Calcium supplement dose is 548.77 mg.

And the “Serum Calcium” value ([1]; week 4)?
Its value is 9.6 mg/dL.

What about the “Active Vitamin D dose” value ([1]; week 6) of the same substance?
The value was 0.004 µg.

And the Calcium supplement dose ([1]; week 6)?
Its Calcium supplement dose is 229.1 mg.

What about the “Serum Calcium” value ([1]; week 6) of the same substance?
Its value is 9.7 mg/dL.

And the “Active Vitamin D dose” value ([1]; week 8)?
Its value is 0 µg.

What about the Calcium supplement dose ([1]; week 8) of the same substance?
Its Calcium supplement dose is 105.74 mg.

And the “Serum Calcium” value ([1]; week 8)?
The value was 9.5 mg/dL.

What about the “Active Vitamin D dose” value ([1]; week 10) of the same substance?
The value was 0 µg.

And the Calcium supplement dose ([1]; week 10)?
The Calcium supplement dose was 114.17 mg.

And the “Serum Calcium” value ([1]; week 10)?
Its value is 9.5 mg/dL.

And the “Active Vitamin D dose” value ([1]; week 12)?
Its value is 0 µg.

And the Calcium supplement dose ([1]; week 12)?
Its Calcium supplement dose is 102.46 mg.

And the “Serum Calcium” value ([1]; week 12)?
The value was 9.5 mg/dL.

What about the “Active Vitamin D dose” value ([1]; week 16) of the same substance?
The value was 0 µg.

What about the Calcium supplement dose ([1]; week 16) of the same substance?
Its Calcium supplement dose is 182.38 mg.

What about the “Serum Calcium” value ([1]; week 16) of the same substance?
The value was 9.3 mg/dL.

What about the “Active Vitamin D dose” value ([1]; week 20) of the same substance?
Its value is 0 µg.

And the Calcium supplement dose ([1]; week 20)?
Its Calcium supplement dose is 300.83 mg.

And the “Serum Calcium” value ([1]; week 20)?
Its value is 9.3 mg/dL.

What about the “Active Vitamin D dose” value ([1]; week 26) of the same substance?
The value was 0 µg.

And the Calcium supplement dose ([1]; week 26)?
Its Calcium supplement dose is 274.17 mg.

And the “Serum Calcium” value ([1]; week 26)?
The value was 8.9 mg/dL.

What about the “mean serum calcium (sCa) levels” value ([1]; when adequately titrated, all study visits) of the same substance?
The value was “in the normal range”.

For “Compound 5: polypeptide having the sequence AVAEIQLMHQRAKWIQDARR RAFLHKLIAEIHTAEI, SEQ ID NO:122 (AVAEIQLMHQRAKWIQDARRRAFLHKLIAEIHTAEI; Artificial random coil) [reference compound]”, which “dose able to suppress endogenous PTH 1-84” value (endogenous PTH 1-84; daily dosing) is on record?
Its value is 60 µg.
